# Results taken from patent US9394290B2, “Selective CYP11B1 inhibitors for the treatment of cortisol dependent diseases” (UNIVERSITAET DES SAARLANDES CAMPUS SAARBRUECKEN, priority 2010, dated 2016).
# How the values were obtained:
# human CYP17 = human CYP17 (Homo sapiens (Human), UniProt P05093); assay: CYP17 inhibition assay (membrane fraction of E. coli expressing human CYP17, substrate progesterone); format: biochemical; conditions: 25 μM, inhibitor concentration 2.0 μM; for inhibition at 2 µM: read-out: inhibition (%) CYP 17
# Sequence of human CYP17 (P05093 whole entry): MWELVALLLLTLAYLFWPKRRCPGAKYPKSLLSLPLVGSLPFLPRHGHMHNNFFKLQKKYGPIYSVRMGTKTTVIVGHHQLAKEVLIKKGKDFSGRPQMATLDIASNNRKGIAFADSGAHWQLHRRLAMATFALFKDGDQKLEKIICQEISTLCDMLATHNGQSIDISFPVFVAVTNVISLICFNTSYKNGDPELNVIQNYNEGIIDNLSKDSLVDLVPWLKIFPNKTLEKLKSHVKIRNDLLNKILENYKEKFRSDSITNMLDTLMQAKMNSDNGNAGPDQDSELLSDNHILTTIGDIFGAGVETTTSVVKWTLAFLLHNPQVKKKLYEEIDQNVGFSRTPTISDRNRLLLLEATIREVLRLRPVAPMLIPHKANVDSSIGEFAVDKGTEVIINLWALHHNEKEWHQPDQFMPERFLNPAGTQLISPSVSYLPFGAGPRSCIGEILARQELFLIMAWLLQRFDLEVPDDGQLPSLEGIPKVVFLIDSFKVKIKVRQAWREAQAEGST
# Procedure: Recombinant E. coli pJL17/OR coexpressing human CYP17 and rat NADPH-P450-reductase were grown and stored as described by Ehmer et al. (J. Steroid Biochem. Mol. Biol., 2000, 75, 57-63)
# For isolation of membrane fractions, 5 ml of bacterial suspension with an OD578 of 50 were washed using phosphate buffer (0.05 M, pH 7.4, 1 mM MgCl2, 0.1 mM EDTA and 0.1 mM dithiothreitol). Bacteria were harvested by centrifugation (2000×g) and the pellet was resuspended in 10 ml ice-cold TES buffer (0.1 M tris-acetate, pH 7.8, 0.5 mM EDTA, 0.5 M sucrose). Lysozyme was added with 10 ml of ice-cold water resulting in a concentration of 0.2 mg/ml followed by incubation for 30 min on ice with continuous shaking. Spheroplasts were harvested by centrifugation (12000×g, 10 min), and resuspended in 4 ml of ice-cold phosphate buffer (the same as described above plus 0.5 mM phenylmethylsulfonylfluoride (PMSF)).
# After that spheroplasts were sonicated on ice (pulse 20 s on, 30 s off, five times), using a sonicator Sonopuls HD60 (Bandelin, Berlin, Germany) at maximum power. Unbroken cells and debris were pelleted at 3000×g for 7 min, and the supernatant was centrifuged at 50000×g for 20 min at 4° C. The membrane pellet was resuspended in 2 ml of phosphate buffer (the same as described above) with 20% glycerol using an ultra-turrax T25 (IKA-Labortechnik, Staufen, Germany). Protein concentration was determined by the method of Lowry.
# The assay was performed as follows: a solution of 6.25 nmol progesterone (in 5 μl methanol) in 140 μl phosphate buffer (0.05 M, pH 7.4, 1 mM MgCl2, 0.1 mM EDTA and 0.1 mM dithiothreitol), 50 μl NADPH generating system (in phosphate buffer with 10 mM NADP, 100 mM glucose-6-phosphate and 2.5 units of glucose-6-phosphate-dehydrogenase) and inhibitor (in 5 μl DMSO) was pre-incubated at 37° C. for 5 min. Control cups were supplemented with 5 μl DMSO without inhibitor. The reaction was started by adding 50 μl of a 1:5 diluted membrane suspension in phosphate buffer (0.8-1.0 mg protein per ml). The maximum DMSO concentration in each sample was 2%. After mixing, incubation was performed for 30 min at 37° C. Subsequently the reaction was stopped with 50 μl 1 N HCl.
# Extraction of the steroids was performed by addition of 1.0 ml ethyl acetate and vigorous shaking for 1 min. After a centrifugation step (5 min, 2500×g) the organic phase (0.9 ml) was transferred into a fresh cup containing 0.25 ml of incubation buffer and 50 μl 1 N HCl and mixed again. After centrifugation, 0.8 ml ethyl acetate solution was evaporated to dryness in a fresh cup. After that the steroids were redissolved in solvent for HPLC analysis (Hutschenreuter et. al. J. Enz. Inhib. Med. Chem. 2004, 19, 17-32).
# The above experiment was conducted at least three times and a mean value for the CYP17 inhibition calculated.
# Human placental CYP19 = Human placental CYP19 (Homo sapiens (Human), UniProt P11511); assay: CYP19 (aromatase) assay, human placental microsomes, 3H2O release; format: biochemical; conditions: substrate androstenedione, 500 nM, inhibitor concentration 500 nM; for inhibition at 0.5 µM: read-out: inhibition (%) CYP 19
# Sequence of Human placental CYP19 (P11511 whole entry): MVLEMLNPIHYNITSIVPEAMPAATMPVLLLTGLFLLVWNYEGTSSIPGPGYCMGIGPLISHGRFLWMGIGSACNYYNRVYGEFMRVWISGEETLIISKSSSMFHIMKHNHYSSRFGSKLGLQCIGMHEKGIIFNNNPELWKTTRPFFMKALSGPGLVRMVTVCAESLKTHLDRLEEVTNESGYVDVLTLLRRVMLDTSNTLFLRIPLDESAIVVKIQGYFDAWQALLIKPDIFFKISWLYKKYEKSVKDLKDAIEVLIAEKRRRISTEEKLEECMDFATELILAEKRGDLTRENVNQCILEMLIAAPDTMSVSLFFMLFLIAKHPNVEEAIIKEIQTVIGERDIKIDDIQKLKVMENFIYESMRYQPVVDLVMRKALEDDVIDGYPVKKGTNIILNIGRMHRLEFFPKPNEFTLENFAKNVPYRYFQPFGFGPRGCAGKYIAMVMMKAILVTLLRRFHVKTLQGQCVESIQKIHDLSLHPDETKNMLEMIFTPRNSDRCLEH
# Procedure: The enzyme was obtained from the microsomal fraction of freshly delivered human term placental tissue according to the procedure of Thompson and Siiteri (Thompson, E. A.; Siiteri, P. K. J. Biol. Chem. 1974, 249, 5364).
# The isolated microsomes were suspended in a minimum volume of phosphate buffer (0.05 M, pH 7.4, 20% glycerol). Additionally, DTT (dithiothreitol, 10 mM) and EDTA (1 mM) were added to protect the enzyme from degradation. The enzyme preparation was stored at −70° C.
# The assay was performed monitoring enzyme activity by measuring the ^3H2O formed from [1β-^3H]androstenedione during aromatization (Hartmann et al. J. Med. Chem. 1986, 29, 1362-1369). […] The test compounds were dissolved in DMSO and diluted with buffer. The final DMSO concentration in the control and inhibitor incubation was 2%. Each tube was pre-incubated for 5 min at 30° C. in a water bath. Microsomal protein was added to start the reaction (0.1 mg). The total volume for each incubation was 0.25 ml. The reaction was terminated by the addition of 200 μl of a cold 1 mM HgCl2 solution. After addition of 200 μl of an aqueous dextran-coated charcoal (DCC) suspension (2%), the vials were shaken for 20 min and centrifuged at 1500×g for 5 min to separate the charcoal-absorbed steroids. The supernatant was assayed for ^3H2O by counting in a scintillation mixture using a β-counter. The calculation of the IC50 values was performed by plotting the percent inhibition vs. the concentration of inhibitor on a semi-log plot.
# The above experiment was conducted at least three times and a mean value for the CYP19 inhibition calculated.
# human CYP11B1 = human CYP11B1 (Homo sapiens (Human), UniProt P15538); assay: Cellular assay for CYP11B1 inhibition (V79MZh11B1 hamster fibroblasts, substrate 11-deoxycorticosterone); conditions: for sf: selectivity factor: IC50 (CYP11B2)/IC50 (CYP11B1): ratio IC50 (CYP11B2)/IC50 (CYP11B1); for IC50: read-out: IC50 value CYP11B1, Hamster fibroblasts expressing human CYP11B1, substrate 11-deoxycorticosterone, 100 nM, mean of at least three experiments
# Sequence of human CYP11B1 (P15538 25-503): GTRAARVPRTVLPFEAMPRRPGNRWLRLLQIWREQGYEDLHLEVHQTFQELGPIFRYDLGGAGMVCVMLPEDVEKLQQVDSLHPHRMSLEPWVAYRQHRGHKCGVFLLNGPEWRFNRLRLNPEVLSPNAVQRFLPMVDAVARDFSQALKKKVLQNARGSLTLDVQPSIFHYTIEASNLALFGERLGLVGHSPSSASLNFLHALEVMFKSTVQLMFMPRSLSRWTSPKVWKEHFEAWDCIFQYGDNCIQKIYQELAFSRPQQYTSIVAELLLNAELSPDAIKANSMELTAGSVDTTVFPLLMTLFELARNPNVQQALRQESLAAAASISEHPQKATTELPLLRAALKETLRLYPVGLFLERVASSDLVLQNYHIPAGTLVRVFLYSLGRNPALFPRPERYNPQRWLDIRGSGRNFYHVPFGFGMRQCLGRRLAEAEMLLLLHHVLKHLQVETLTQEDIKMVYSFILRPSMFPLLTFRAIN
# human CYP11B2 = human CYP11B2 (Homo sapiens (Human), UniProt P19099); assay: Cellular assay for CYP11B2 inhibition (V79MZh11B2 hamster fibroblasts, substrate 11-deoxycorticosterone); conditions: for IC50: read-out: IC50 value CYP11B2, Hamster fibroblasts expressing human CYP11B2, 100 nM, mean of at least three experiments, n.i. = no inhibition at an inhibitor concentration of 500 nM
# Sequence of human CYP11B2 (P19099 25-503): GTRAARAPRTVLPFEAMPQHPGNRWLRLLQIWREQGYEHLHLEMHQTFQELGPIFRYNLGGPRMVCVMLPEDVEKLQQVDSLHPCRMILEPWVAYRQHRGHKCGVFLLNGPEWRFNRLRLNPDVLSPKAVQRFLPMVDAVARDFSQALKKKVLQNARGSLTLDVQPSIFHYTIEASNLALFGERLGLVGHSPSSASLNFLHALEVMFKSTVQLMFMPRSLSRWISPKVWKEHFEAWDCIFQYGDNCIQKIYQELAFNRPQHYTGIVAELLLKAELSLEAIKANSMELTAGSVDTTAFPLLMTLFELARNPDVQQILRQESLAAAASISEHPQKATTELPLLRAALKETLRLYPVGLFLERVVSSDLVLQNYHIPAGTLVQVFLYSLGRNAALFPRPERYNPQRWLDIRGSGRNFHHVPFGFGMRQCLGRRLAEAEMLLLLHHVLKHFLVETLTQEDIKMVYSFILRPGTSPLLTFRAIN
SMILES,inhibition at 2 µM (human CYP17) [%],inhibition at 0.5 µM (Human placental CYP19) [%],sf: selectivity factor: IC50 (CYP11B2)/IC50 (CYP11B1) (human CYP11B1),IC50 (human CYP11B1) [nM],IC50 (human CYP11B2) [nM],"IC50 value CYP11B2 (human CYP11B2; Hamster fibroblasts expressing human CYP11B2, 100 nM, mean of at least three experiments, n.i. = no inhibition at an inhibitor concentration of 500 nM)",inhibition (%) CYP 17 (human CYP17) [%],inhibition (%) CYP 19 (Human placental CYP19) [%]
"COc1ccccc1-c1ccc(Cn2ccnc2)cn1 [Compound 12, 5-Imidazol-1-ylmethyl-2-(2-methoxy-phenyl)pyridine]",5,4,26,167,4390,–,–,–
"Nc1ccccc1-c1ccc(Cn2ccnc2)cn1 [Compound 15, 2-(5-Imidazol-1-ylmethyl-pyridin-2-yl)-phenylamine]",6,0,21,101,2110,–,–,–
"Nc1cccc(-c2ccc(Cn3ccnc3)cn2)c1 [Compound 16, 3-(5-Imidazol-1-ylmethyl-pyridin-2-yl)-phenylamine]",3,2,31,110,3410,–,–,–
"Nc1ccc(-c2ccc(Cn3ccnc3)cn2)cc1 [Compound 17, 4-(5-Imidazol-1-ylmethyl-pyridin-2-yl)-phenylamine]",4,1,5,106,528,–,–,–
"Cc1ccc(-c2ccc(Cn3ccnc3)cn2)cc1N [Compound 18, 5-(5-Imidazol-1-ylmethyl-pyridin-2-yl)-2-methyl-phenylamine]",3,0,–,542,> 1000,–,–,–
"c1ccc(N(c2ccccc2)c2ccc(-c3ccc(Cn4ccnc4)cn3)cc2)cc1 [Compound 22, [4-(5-Imidazol-1-ylmethyl-pyridin-2-yl)-phenyl]-diphenyl-amine]",2,1,–,611,–,n.i.^d,–,–
"c1ccc2c(-c3ccc(Cn4ccnc4)cn3)cccc2c1 [Compound 23, 5-Imidazol-1-ylmethyl-2-naphthalen-1-yl-pyridine]",8,5,49,42,2080,–,–,–
"c1ccc(-c2cc(Cn3ccnc3)cnc2-c2ccccc2)cc1 [Compound 25, 5-Imidazol-1-ylmethyl-2,3-diphenyl-pyridine]",3,0,2.4,362,851,–,–,–
"c1csc(-c2ccc(Cn3ccnc3)cn2)c1 [Compound 31, 5-Imidazol-1-ylmethyl-2-thiophen-2-yl-pyridine]",8,3,17,75,1240,–,–,–
"c1cn(Cc2ccc(-c3ccsc3)nc2)cn1 [Compound 32, 5-Imidazol-1-ylmethyl-2-thiophen-3-yl-pyridine]",3,0,26,126,3260,–,–,–
"O=Cc1ccc(-c2ccc(Cn3ccnc3)cn2)s1 [Compound 34, 5-(5-Imidazol-1-ylmethyl-pyridin-2-yl)-thiophene-2-carbaldehyde]",5,0,16,62,968,–,–,–
"c1ccc(-c2cc(Cn3ccnc3)cnc2-c2ccccc2)cc1 [Compound 35, 5-Imidazol-1-ylmethyl-2,3-diphenyl-pyridine]",–,–,6,73,416,–,5,30
"c1csc(-c2ncccc2Cn2ccnc2)c1 [Compound 36, 3-Imidazol-1-ylmethyl-2-thiophen-2-yl-pyridine]",0,19,16,16,251,–,–,–
"c1ccc2c(-c3ccc(Cn4ccnc4)cn3)csc2c1 [Compound 38, 2-Benzo[b]thiophen-3-yl-5-imidazol-1-ylmethyl-pyridine]",4,0,29,40,1160,–,–,–
"c1coc(-c2ccc(Cn3ccnc3)cn2)c1 [Compound 39, 2-Furan-2-yl-5-imidazol-1-ylmethyl-pyridine]",1,0,31,167,5160,–,–,–
"c1cn(Cc2ccc(-c3ccoc3)nc2)cn1 [Compound 40, 2-Furan-3-yl-5-imidazol-1-ylmethyl-pyridine]",8,0,37,76,2830,–,–,–
"c1coc(-c2cc(Cn3ccnc3)cnc2-c2ccco2)c1 [Compound 42, 2,3-Di-furan-2-yl-5-imidazol-1-ylmethyl-pyridine]",6.7,2.2,29,29,830,–,–,–
